Results taken from US9908926B2, “Protein-based molecular temperature switch” (ARIZONA BOARD OF REGENTS ON BEHALF OF ARIZONA STATE …, priority 2014, dated 2018).

Assays:
[1] = system: human bladder cancer cell lines; conditions: cited from earlier work
TRPM8 protein domain = TRPM8 protein domain (Homo sapiens, UniProt Q7Z2W7); assay: Activation of TRPM8 by menthol (shift of activation curve); format: biochemical; conditions: FIG. 5
Text: FIG. 3 illustrates the regulation of the ion channel via cold temperature change to an open channel within the protein membrane. The TRPM8 protein domain is weakly voltage-dependant and polymodal in that it can be activated with more than one agonist.

Sequence of TRPM8 protein domain (Q7Z2W7 whole entry, the tested form may be a part): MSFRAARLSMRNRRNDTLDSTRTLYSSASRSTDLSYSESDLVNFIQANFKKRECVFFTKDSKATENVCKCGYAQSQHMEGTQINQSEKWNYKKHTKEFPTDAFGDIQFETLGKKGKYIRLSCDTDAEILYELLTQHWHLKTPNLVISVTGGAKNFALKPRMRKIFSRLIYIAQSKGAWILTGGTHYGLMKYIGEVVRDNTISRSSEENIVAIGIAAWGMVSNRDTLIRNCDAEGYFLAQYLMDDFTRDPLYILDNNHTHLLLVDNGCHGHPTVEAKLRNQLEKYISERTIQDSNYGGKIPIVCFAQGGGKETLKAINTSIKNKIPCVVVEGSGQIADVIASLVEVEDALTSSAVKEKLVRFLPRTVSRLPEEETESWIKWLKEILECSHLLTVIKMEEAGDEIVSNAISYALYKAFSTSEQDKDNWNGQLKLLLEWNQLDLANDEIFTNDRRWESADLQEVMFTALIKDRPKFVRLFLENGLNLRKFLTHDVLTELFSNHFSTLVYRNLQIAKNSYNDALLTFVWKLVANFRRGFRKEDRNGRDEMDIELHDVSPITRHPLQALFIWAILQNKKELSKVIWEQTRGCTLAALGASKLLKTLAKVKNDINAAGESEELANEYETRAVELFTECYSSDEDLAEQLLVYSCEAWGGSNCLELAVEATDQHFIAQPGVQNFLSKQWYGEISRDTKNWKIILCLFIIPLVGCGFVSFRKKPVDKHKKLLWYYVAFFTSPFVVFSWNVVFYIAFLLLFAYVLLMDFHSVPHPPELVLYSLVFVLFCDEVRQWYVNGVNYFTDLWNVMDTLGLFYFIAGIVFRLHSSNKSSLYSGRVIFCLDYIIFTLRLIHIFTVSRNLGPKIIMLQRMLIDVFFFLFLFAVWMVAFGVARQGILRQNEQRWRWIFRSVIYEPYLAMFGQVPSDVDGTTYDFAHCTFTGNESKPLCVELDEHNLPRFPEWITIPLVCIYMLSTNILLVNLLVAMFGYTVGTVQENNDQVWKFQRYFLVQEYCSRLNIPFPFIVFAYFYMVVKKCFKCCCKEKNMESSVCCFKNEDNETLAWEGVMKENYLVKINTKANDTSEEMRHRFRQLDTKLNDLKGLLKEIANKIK

For CC1CCC(C(C)C)C(O)C1 (centres unmarked) [menthol], the cell death [1] is listed as “induces cell death in human bladder cancer cell lines” and the “activation of the TRPM8 protein domain” value (TRPM8 protein domain) is listed as “activates the TRPM8 protein domain by shifting the activation curve”.
